Tests used:
female Wistar rat = test: Animal test in vivo: average food consumption (appetite inhibition); conditions: crude extract 300 mg/kg; for Average food consumptions: Table 1, positive control 15 mg/kg, others 50 mg/kg; for average food consumptions compared with the blank control group (in words): during the administration of the drugs, pure glycosides 50 mg/kg
Description: (§1) 6-7 weeks-old female Wistar rat (purchased from Shanghai Laboratory Animal Center of Chinese Academy of Sciences)(weight: 110-150 g) was raised alone in suspended metal cage. After the experimental rat was obtained, it was checked to make sure whether they were abnormal or had obvious disease signs. The rat can freely obtain the drinking-water and feed for rodent (RM1(E)AQC). The feeding cage was controlled to receive 12 h illumination (from 07:00 to 19:00) and to be in a dark environment for 12 h, and the room temperature and relative humidity were controlled to be 21±3° C. and 55±15% respectively and not to deviate the upper and lower limit. The rats were randomly divided into groups depending on the body weight according to random number table to make the average weight in each group are approximately equal. Before the test, the rats were pre-trained suitably for one week (from −7th day to −1st day) during which the consumptions of feed and drinking water were recorded.
(§2) Each group of drug to be tested, positive control group, and blank control group consisted of 5 rats, respectively. The tested drug and positive control drug were mixed with wheaten starch before the administration and formulated to suspension with required doses according to 10 mL/kg of administration volume. The positive control drug was sibutramine hydrochloride and the administration dosage was 15 mg/kg body weight. In the blank control group, only equal amount of starch was used to formulate suspension for administration by […] in a same volume. The administration time is the 1st day, 2nd day and 3rd day. The body weight of the rat, the consumption of the feed (the weight of the feeding hopper) and consumption of the drinking water (bottle weight) were recorded from the −7th day to the 7th day.

[1] = Animal test in vivo: average body weight; set-up: species or system rat; conditions: crude extract 300 mg/kg; for Average body weight: Table 3, positive control 15 mg/kg, others 50 mg/kg; for body weight compared with the blank control group (in words): during the administration of the drugs, pure glycosides 50 mg/kg
Description: as §1, §2

[2] = 4th day (after administration on days 1-3)
[3] = 5th day (after administration on days 1-3)
[4] = 6th day (after administration on days 1-3)
[5] = 7th day (after administration on days 1-3)
[6] = −1st day (before administration)
[7] = −2nd day (before administration)
[8] = −3rd day (before administration)
[9] = −4th day (before administration)
[10] = −5th day (before administration)
[11] = −6th day (before administration)
[12] = −7th day (before administration)

Row | SMILES | Average food consumptions (female Wistar rat; 1st day (administration day)) | Average food consumptions (female Wistar rat; 2nd day (administration day)) | Average food consumptions (female Wistar rat; 3rd day (administration day)) | Average food consumptions (female Wistar rat; [2]) | Average food consumptions (female Wistar rat; [3]) | Average food consumptions (female Wistar rat; [4]) | Average food consumptions (female Wistar rat; [5]) | average food consumptions compared with the blank control group (in words) (female Wistar rat) | Average food consumptions (female Wistar rat; [6]) | Average food consumptions (female Wistar rat; [7]) | Average food consumptions (female Wistar rat; [8]) | Average food consumptions (female Wistar rat; [9]) | Average food consumptions (female Wistar rat; [10]) | Average food consumptions (female Wistar rat; [11]) | Average food consumptions (female Wistar rat; [12]) | Average body weight ([1]; 1st day (administration day)) | Average body weight ([1]; 2nd day (administration day)) | Average body weight ([1]; 3rd day (administration day)) | Average body weight [1, 2] | Average body weight [1, 3] | other results
1 | CO[C@H]1C[C@H](O[C@H]2[C@@H](OC)C[C@H](O[C@H]3CC[C@@]4(C)C(=CC[C@]5(O)[C@@H]4C[C@@H](OC(=O)/C=C/c4ccccc4)[C@@]4(C)[C@]5(O)CC[C@@]4(O)C(C)=O)C3)O[C@@H]2C)O[C@@H](C)[C@H]1O[C@H]1C[C@H](OC)[C@H](O[C@H]2C[C@@H](OC)[C@@H](O[C@@H]3O[C@H](CO)[C@@H](O)[C@H](O)[C@H]3O)[C@H](C)O2)[C@@H](C)O1 [Cynauricuoside A, cynauricuoside A] | 9.2 g | 10.8 g | 9.2 g | 15.2 g | 13.6 g | 13.2 g | 13.6 g | greatly less than those in the blank control group | 12.4 g | 14.4 g | 13.6 g | 14 g | 13.6 g | 11.2 g | 14 g | 158.8 g | 156.4 g | 153.6 g | 156.8 g | 158.4 g | Average body weight [1, 4]: 164.4 g; Average body weight [1, 5]: 166.8 g; body weight compared with the blank control group (in words) [1]: the tendency of body weight change was greatly different; Average body weight [1, 6]: 163.6 g; Average body weight [1, 7]: 160.4 g; Average body weight [1, 8]: 158 g; Average body weight [1, 9]: 156 g; Average body weight [1, 10]: 154.4 g; Average body weight [1, 11]: 152.8 g; Average body weight [1, 12]: 150 g
2 | CO[C@H]1C[C@H](O[C@H]2[C@@H](OC)C[C@H](O[C@H]3CC[C@@]4(C)C(=CC[C@]5(O)[C@@H]4C[C@@H](OC(=O)/C=C(\C)C(C)C)[C@@]4(C)[C@]5(O)CC[C@@]4(O)C(C)=O)C3)O[C@@H]2C)O[C@@H](C)[C@H]1O[C@H]1C[C@H](OC)[C@H](O[C@H]2C[C@@H](OC)[C@@H](O[C@@H]3O[C@H](CO)[C@@H](O)[C@H](O)[C@H]3O)[C@H](C)O2)[C@@H](C)O1 [Wilfoside C1G, wilfoside C1G] | 14.4 g | 12.4 g | 14.4 g | 14.8 g | 17.6 g | 12.4 g | 15.2 g | no great differences | 14 g | 13.6 g | 14.8 g | 15.2 g | 13.6 g | 13.6 g | 13.6 g | 163.6 g | 163.2 g | 165.2 g | 166.4 g | 170.4 g | Average body weight [1, 4]: 169.6 g; Average body weight [1, 5]: 174.4 g; body weight compared with the blank control group (in words) [1]: no great differences; Average body weight [1, 6]: 162.8 g; Average body weight [1, 7]: 157.6 g; Average body weight [1, 8]: 155.6 g; Average body weight [1, 9]: 153.2 g; Average body weight [1, 10]: 151.2 g; Average body weight [1, 11]: 147.6 g; Average body weight [1, 12]: 145.6 g

— US9012611B2, “Use of 3,8,12,14, 17,20-oxo-substituted pregnene glycosides in the preparation of healthcare products, food additives and pharmaceuticals for the inhibition of appetite” (Institute of Materia Medica, Chinese Academy of Sciences, priority 2010, dated 2015)
